29 molecules from US10626112B2, “Heterocyclic sulfonamide derivative and medicine comprising same” (EA PHARMA CO., LTD., priority 2014, dated 2020) can be followed below.

Chain of human TRPA1 (O75762 whole entry): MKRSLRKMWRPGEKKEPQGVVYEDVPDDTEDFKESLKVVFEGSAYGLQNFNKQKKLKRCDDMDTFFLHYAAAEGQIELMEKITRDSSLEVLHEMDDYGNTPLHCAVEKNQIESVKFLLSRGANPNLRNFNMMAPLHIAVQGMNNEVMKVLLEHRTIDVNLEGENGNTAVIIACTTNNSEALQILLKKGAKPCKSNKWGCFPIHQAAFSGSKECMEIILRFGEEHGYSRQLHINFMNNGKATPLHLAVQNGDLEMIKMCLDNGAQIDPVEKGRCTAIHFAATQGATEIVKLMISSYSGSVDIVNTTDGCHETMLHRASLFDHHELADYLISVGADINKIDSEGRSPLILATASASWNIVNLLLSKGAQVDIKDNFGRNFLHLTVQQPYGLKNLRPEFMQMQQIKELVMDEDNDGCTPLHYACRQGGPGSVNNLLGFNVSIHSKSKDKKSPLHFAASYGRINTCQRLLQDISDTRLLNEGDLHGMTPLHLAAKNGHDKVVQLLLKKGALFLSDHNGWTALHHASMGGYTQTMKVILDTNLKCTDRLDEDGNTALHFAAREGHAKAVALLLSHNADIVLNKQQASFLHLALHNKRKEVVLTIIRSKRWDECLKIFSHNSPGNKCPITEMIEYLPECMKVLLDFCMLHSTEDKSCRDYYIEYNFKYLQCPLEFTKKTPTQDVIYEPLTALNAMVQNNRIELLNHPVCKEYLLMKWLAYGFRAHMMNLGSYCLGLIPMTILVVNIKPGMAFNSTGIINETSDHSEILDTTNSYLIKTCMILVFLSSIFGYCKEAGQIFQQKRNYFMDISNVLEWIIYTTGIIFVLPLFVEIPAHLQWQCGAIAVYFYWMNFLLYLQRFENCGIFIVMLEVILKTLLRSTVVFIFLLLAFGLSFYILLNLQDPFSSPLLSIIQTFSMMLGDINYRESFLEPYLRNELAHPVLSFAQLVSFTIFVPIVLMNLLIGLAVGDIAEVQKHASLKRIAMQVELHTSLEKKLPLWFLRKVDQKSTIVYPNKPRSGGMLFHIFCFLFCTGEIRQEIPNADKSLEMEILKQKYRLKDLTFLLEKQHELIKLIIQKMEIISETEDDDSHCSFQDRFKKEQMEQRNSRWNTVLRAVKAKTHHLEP

This assay concerns the target human TRPA1 (Homo sapiens (Human), UniProt O75762). Put plainly: Measurement of TRPA1 antagonist activity (1): intracellular calcium increase. Type of assay: cell-based. The conditions noted are these: 293T cells transfected with human TRPA1 expression plasmid; allylisothiocyanate 20 μM stimulation; intracellular calcium fluorescence; read-out: hTRPA1 IC50. In a few lines:
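HEK293T cells transiently transfected with full-length human TRPA1, loaded with Calcium4 dye in HBSS/20 mM HEPES pH 7.2. Test compound preincubated 10 min, then allylisothiocyanate added at 20 μM final and fluorescence change followed for 5 min. IC50 from sigmoid fit of percent inhibition relative to agonist and buffer controls.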
As a reminder, the IC50 is the concentration that inhibits the measured activity by half. For the molecule `O=C(NCc1cc(-c2ccc(C(F)(F)F)cn2)ccn1)[C@@H]1CCCCN1S(=O)(=O)c1cc2cc(F)ccc2o1` [Example 261, (2S)-1-(5-fluorobenzofuran-2-yl)sulfonyl-N-[[4-[5-(trifluoromethyl)-2-pyridyl]-2-pyridyl]methyl]piperidine-2-carboxamide], the IC50 was 37 nM. The value for `O=C(NCc1cc(-c2ccc(C(F)(F)F)cn2)ccn1)[C@@H]1[C@H]2CC[C@H](C2)N1S(=O)(=O)c1cc2cc(F)ccc2o1` [Example 262, (1S,2S,4R)-3-(5-fluorobenzofuran-2-yl)sulfonyl-N-[[4-[5-(trifluoromethyl)-2-pyridyl]-2-pyridyl]methyl]-3-azabicyclo[2.2.1]heptane-2-carboxamide] was 2.3 nM; that for `O=C(NCc1cc(-c2ccc(C(F)(F)F)cn2)ccn1)[C@@H]1CC=CCN1S(=O)(=O)c1cc2cc(F)ccc2o1` [Example 263, (2S)-1-(5-fluorobenzofuran-2-yl)sulfonyl-N-[[4-[5-(trifluoromethyl)-2-pyridyl]-2-pyridyl]methyl]-3,6-dihydro-2H-pyridine-2-carboxamide] was 21 nM. The value for `O=C(NCc1cc(-c2ccc(C(F)(F)F)cn2)ccn1)[C@@H]1CCCN1S(=O)(=O)c1cc2c(Cl)nccc2o1` [Example 265, (2S)-1-(4-chlorofuro[3,2-c]pyridin-2-yl)sulfonyl-N-[[4-[5-(trifluoromethyl)-2-pyridyl]-2-pyridyl]methyl]pyrrolidine-2-carboxamide] was 12 nM; that for `O=C(NCc1cc(C(F)(F)F)ccc1Cl)[C@@H]1CCCN1S(=O)(=O)c1cc2cnccc2o1` [Example 266, (2S)-N-[[2-chloro-5-(trifluoromethyl)phenyl]methyl]-1-furo[3,2-c]pyridin-2-ylsulfonyl-pyrrolidine-2-carboxamide] was 38 nM. With `O=C(NCc1cccc(OCc2ccccc2)c1)[C@@H]1CCCN1S(=O)(=O)c1cc2cnccc2o1` [Example 267, (2S)-N-[(3-benzyloxyphenyl)methyl]-1-furo[3,2-c]pyridin-2-ylsulfonyl-pyrrolidine-2-carboxamide], the IC50 is 6.4 nM.

Regarding `O=C(NCc1ccc(Oc2cccc(C(F)(F)F)c2)cc1)[C@@H]1CCCN1S(=O)(=O)c1cc2cnccc2o1` [Example 268, (2S)-1-furo[3,2-c]pyridin-2-ylsulfonyl-N-[[4-[3-(trifluoromethyl)phenoxy]-phenyl]methyl]pyrrolidine-2-carboxamide], the IC50 came out at 29 nM.

On to `O=C(NCc1cccc(Oc2ccc(C(F)(F)F)cc2)c1)[C@@H]1CCCN1S(=O)(=O)c1cc2cnccc2o1` [Example 269, (2S)-1-furo[3,2-c]pyridin-2-ylsulfonyl-N-[[3-[4-(trifluoromethyl)phenoxy]-phenyl]methyl]pyrrolidine-2-carboxamide], for which the IC50 is 4.3 nM. As for `O=C(NCc1cc(-c2ccc(C(F)(F)F)cc2)ncn1)[C@@H]1CCCN1S(=O)(=O)c1cc2cnccc2o1` [Example 270, (2S)-1-furo[3,2-c]pyridin-2-ylsulfonyl-N-[[6-[4-(trifluoromethyl)phenyl]-pyrimidin-4-yl]methyl]pyrrolidine-2-carboxamide], the IC50 stood at 3.8 nM. Consider `O=C(NCc1ccnc(-c2ccc(C(F)(F)F)cc2O)c1)[C@@H]1CCCN1S(=O)(=O)c1cc2cnccc2o1` [Example 271, (2S)-1-furo[3,2-c]pyridin-2-ylsulfonyl-N-[[2-[2-hydroxy-4-(trifluoromethyl)phenyl]-4-pyridyl]methyl]pyrrolidine-2-carboxamide], for which the IC50 turned out to be 4.4 nM.

Take `O=C(NCc1cc(-c2ccc(C(F)(F)F)cn2)ccn1)[C@@H]1CCCN1S(=O)(=O)c1cc2cnccc2o1` [Example 272, (2S)-1-furo[3,2-c]pyridin-2-ylsulfonyl-N-[[4-[5-(trifluoromethyl)-2-pyridyl]-2-pyridyl]methyl]pyrrolidine-2-carboxamide]: the IC50 worked out at 12 nM. In the case of `O=C(NCc1ccc(O)c(-c2ccc(C(F)(F)F)cn2)c1)[C@@H]1CCCN1S(=O)(=O)c1cc2cnccc2o1` [Example 273, (2S)-1-furo[3,2-c]pyridin-2-ylsulfonyl-N-[[4-hydroxy-3-[5-(trifluoromethyl)-2-pyridyl]phenyl]methyl]-pyrrolidine-2-carboxamide], the IC50 turned out to be 1.6 nM. As to `O=C(NCc1cccc(OCc2ccnc(C(F)(F)F)c2)c1)[C@@H]1CCCN1S(=O)(=O)c1cc2cnccc2o1` [Example 274, (2S)-1-furo[3,2-c]pyridin-2-ylsulfonyl-N-[[3-[[2-(trifluoromethyl)-4-pyridyl]methoxy]phenyl]-methyl]pyrrolidine-2-carboxamide], the 50% inhibitory concentration (IC50) was determined as 9.8 nM. As for `C#CCN([C@@H](C)C(=O)NCc1ccnc(-c2ccc(C(F)(F)F)cc2O)c1)S(=O)(=O)c1cc2cc(F)ccc2o1` [Example 275, (2S)-2-[(5-fluorobenzofuran-2-yl)sulfonyl-2-propynylamino]-N-[[2-[2-hydroxy-4-(trifluoromethyl)phenyl]-4-pyridyl]methyl]propanamide], the IC50 worked out at 3.8 nM. For `CC(C)(C)OC(=O)Nc1ccccc1-c1cc(CNC(=O)[C@@H]2CCCN2S(=O)(=O)c2cc3ccccc3o2)ccn1` [Example 276, N-[2-[4-[[[(2S)-1-(benzofuran-2-ylsulfonyl)pyrrolidine-2-carbonyl]amino]methyl]-2-pyridyl]phenyl]carbamic acid tert-butyl], the IC50 stood at 150 nM. On to `O=C(NCc1ccnc(-c2cc(Cl)cs2)c1)[C@@H]1CCCN1S(=O)(=O)c1cc2ccccc2o1` [Example 277, (2S)-1-(benzofuran-2-ylsulfonyl)-N-[[2-(4-chloro-2-thienyl)-4-pyridyl]methyl]pyrrolidine-2-carboxamide], for which the IC50 stood at 89 nM. Regarding `CSc1ccc(-c2cc(CNC(=O)[C@@H]3CCCN3S(=O)(=O)c3cc4ccccc4o3)ccn2)cc1` [Example 278, (2S)-1-(benzofuran-2-ylsulfonyl)-N-[[2-(4-methylsulfanylphenyl)-4-pyridyl]methyl]pyrrolidine-2-carboxamide], the IC50 turned out to be 16 nM. Regarding `O=C(NCc1cncc(-c2ccc(OC(F)(F)F)cc2)c1)[C@@H]1CCCN1S(=O)(=O)c1cc2cc(F)ccc2o1` [Example 279, (2S)-1-(5-fluorobenzofuran-2-yl)sulfonyl-N-[[5-[4-(trifluoromethoxy)phenyl]-3-pyridyl]methyl]pyrrolidine-2-carboxamide], the IC50 came to 2.8 nM. Regarding `O=C(NCc1cc(-c2ccc(C(F)(F)F)cc2O)ccn1)[C@@H]1CCCN1S(=O)(=O)c1cc2cc(F)ccc2o1` [Example 280, (2S)-1-(5-fluorobenzofuran-2-yl)sulfonyl-N-[[4-[2-hydroxy-4-(trifluoromethyl)phenyl]-2-pyridyl]methyl]pyrrolidine-2-carboxamide], the IC50 is 520 nM.

For `N#Cc1ccc(-c2ccnc(CNC(=O)[C@@H]3CCCN3S(=O)(=O)c3cc4ccccc4o3)c2)cc1` [Example 281, (2S)-1-(benzofuran-2-ylsulfonyl)-N-[[4-(4-cyanophenyl)-2-pyridyl]methyl]pyrrolidine-2-carboxamide], the IC50 was 22 nM. `O=C(NCc1cc(/C=C/C2CC2)ccn1)[C@@H]1CCCN1S(=O)(=O)c1cc2ccccc2o1` [Example 282, (2S)-1-(benzofuran-2-ylsulfonyl)-N-[[4-[(E)-2-cyclopropylvinyl]-2-pyridyl]methyl]pyrrolidine-2-carboxamide]: the IC50 was 250 nM. The result for `O=C(NCc1cc(C2=CCCCC2)ccn1)[C@@H]1CCCN1S(=O)(=O)c1cc2ccccc2o1` [Example 283, (2S)-1-(benzofuran-2-ylsulfonyl)-N-[[4-(cyclohexen-1-yl)-2-pyridyl]methyl]pyrrolidine-2-carboxamide] reads 250 nM; that for `Cc1ccc(-c2ccnc(CNC(=O)[C@@H]3CCCN3S(=O)(=O)c3cc4ccccc4o3)c2)cc1` [Example 284, (2S)-1-(benzofuran-2-ylsulfonyl)-N-[[4-(p-tolyl)-2-pyridyl]methyl]pyrrolidine-2-carboxamide], 76 nM; that for `CC(C)(C)c1ccc(-c2ccnc(CNC(=O)[C@@H]3CCCN3S(=O)(=O)c3cc4ccccc4o3)c2)cc1` [Example 285, (2S)-1-(benzofuran-2-ylsulfonyl)-N-[[4-(4-tert-butylphenyl)-2-pyridyl]methyl]pyrrolidine-2-carboxamide], 30 nM. The value for `O=C(NCc1cc(-c2cc(Cl)cs2)ccn1)[C@@H]1CCCN1S(=O)(=O)c1cc2ccccc2o1` [Example 286, (2S)-1-(benzofuran-2-ylsulfonyl)-N-[[4-(4-chloro-2-thienyl)-2-pyridyl]methyl]pyrrolidine-2-carboxamide] was 180 nM; that for `C[C@H](NC(=O)[C@@H]1CCCN1S(=O)(=O)c1cc2ccccc2o1)c1cccc(-c2ccc(C(F)(F)F)nc2)c1` [Example 287, (2S)-1-(benzofuran-2-ylsulfonyl)-N-[(1S)-1-[3-[6-(trifluoromethyl)-3-pyridyl]phenyl]ethyl]pyrrolidine-2-carboxamide] was 7.9 nM; that for `O=C(NCc1cc(-c2ccc(C(F)(F)F)cc2O)ncn1)[C@@H]1CCCN1S(=O)(=O)c1cc2ccccc2o1` [Example 288, (2S)-1-(benzofuran-2-ylsulfonyl)-N-[[6-[2-hydroxy-4-(trifluoromethyl)phenyl]pyrimidin-4-yl]methyl]pyrrolidine-2-carboxamide] was 2.5 nM. `O=C(NCc1cc(-c2ccc(C(F)(F)F)cc2O)ncn1)[C@@H]1CCCN1S(=O)(=O)c1cc2cc(F)ccc2o1` [Example 289, (2S)-1-(5-fluorobenzofuran-2-yl)sulfonyl-N-[[6-[2-hydroxy-4-(trifluoromethyl)phenyl]pyrimidin-4-yl]methyl]pyrrolidine-2-carboxamide]: the IC50 was 1.4 nM. The value for `C[C@H](NS(=O)(=O)c1cc2cc(F)ccc2o1)C(=O)NCc1cc(-c2ccc(C(F)(F)F)cc2O)ncn1` [Example 290, (2S)-2-[(5-fluorobenzofuran-2-yl)sulfonylamino]-N-[[6-[2-hydroxy-4-(trifluoromethyl)phenyl]pyrimidin-4-yl]methyl]propanamide] was 5.7 nM.
